≈ marks a conversion by molar mass, not a printed value.
Columns and labels:
Type in all cases: functional
Pseudomonas aeruginosa [1] = assay: Antibacterial activity against Pseudomonas aeruginosa ATCC 27853 assessed as inhibition of bacterial growth by continuous dilution method
Escherichia coli [2] = assay: Antibacterial activity against Escherichia coli ATCC 25922 assessed as inhibition of bacterial growth by continuous dilution method
Staphylococcus aureus [3] = assay: Antibacterial activity against Staphylococcus aureus ATCC 29213 assessed as inhibition of bacterial growth by continuous dilution method
Enterococcus faecalis = assay: Antibacterial activity against Enterococcus faecalis assessed as inhibition of bacterial growth by continuous dilution method
Klebsiella pneumoniae = assay: Antibacterial activity against Klebsiella pneumoniae assessed as inhibition of bacterial growth by continuous dilution method
Staphylococcus aureus [4] = assay: Antibacterial activity against Staphylococcus aureus ATCC 25923 assessed as inhibition of bacterial growth by continuous dilution method
Staphylococcus aureus [5] = assay: Antibacterial activity against methicillin-resistant Staphylococcus aureus N315 assessed as inhibition of bacterial growth by continuous dilution method
Acinetobacter baumannii = assay: Antibacterial activity against Acinetobacter baumannii assessed as inhibition of bacterial growth by continuous dilution method
Staphylococcus aureus [6] = assay: Antibacterial activity against Staphylococcus aureus assessed as inhibition of bacterial growth by continuous dilution method
Escherichia coli [7] = assay: Antibacterial activity against Escherichia coli assessed as inhibition of bacterial growth by continuous dilution method
Pseudomonas aeruginosa [8] = assay: Antibacterial activity against Pseudomonas aeruginosa assessed as inhibition of bacterial growth by continuous dilution method

**Q.** What does the source list for `CC(=O)Nc1ccc(S(=O)(=O)C/C(=N/Nc2ccc([N+](=O)[O-])cc2[N+](=O)[O-])c2nccs2)cc1`?
**A.** MIC (Pseudomonas aeruginosa [1]): 32 µg/mL (≈ 63.4 µM); MIC (Escherichia coli [2]): 4 µg/mL (≈ 7.93 µM); MIC (Staphylococcus aureus [3]): 32 µg/mL (≈ 63.4 µM); MIC (Enterococcus faecalis): 2 µg/mL (≈ 3.96 µM); MIC (Klebsiella pneumoniae): 64 µg/mL (≈ 127 µM); MIC (Staphylococcus aureus [4]): 4 µg/mL (≈ 7.93 µM); MIC (Staphylococcus aureus [5]): 8 µg/mL (≈ 15.9 µM); MIC (Acinetobacter baumannii): 4 µg/mL (≈ 7.93 µM); MIC (Staphylococcus aureus [6]): 2 µg/mL (≈ 3.96 µM); MIC (Escherichia coli [7]): 64 µg/mL (≈ 127 µM); MIC (Pseudomonas aeruginosa [8]): 64 µg/mL (≈ 127 µM)

**Q.** How did the MIC (Pseudomonas aeruginosa [1]) turn out when `CC(=O)Nc1ccc(S(=O)(=O)/C(=C\c2ccc(Cl)cc2Cl)C(=O)c2nccs2)cc1` was run?
**A.** The MIC was 128 µg/mL (≈ 266 µM).

**Q.** What about the MIC (Escherichia coli [2]) of the same compound?
**A.** The MIC was 256 µg/mL (≈ 532 µM).

**Q.** What about the MIC (Staphylococcus aureus [3]) of the same compound?
**A.** The MIC was 256 µg/mL (≈ 532 µM).

**Q.** What about the MIC (Enterococcus faecalis) of the same compound?
**A.** Its MIC is 128 µg/mL (≈ 266 µM).

**Q.** And the MIC (Klebsiella pneumoniae)?
**A.** Its MIC is 128 µg/mL (≈ 266 µM).

**Q.** What about the MIC (Staphylococcus aureus [4]) of the same compound?
**A.** Its MIC is 64 µg/mL (≈ 133 µM).

**Q.** And the MIC (Staphylococcus aureus [5])?
**A.** Its MIC is 128 µg/mL (≈ 266 µM).

**Q.** And the MIC (Acinetobacter baumannii)?
**A.** Its MIC is 256 µg/mL (≈ 532 µM).

**Q.** And the MIC (Staphylococcus aureus [6])?
**A.** Its MIC is 128 µg/mL (≈ 266 µM).

**Q.** And the MIC (Escherichia coli [7])?
**A.** Its MIC is 256 µg/mL (≈ 532 µM).

**Q.** And the MIC (Pseudomonas aeruginosa [8])?
**A.** Its MIC is 128 µg/mL (≈ 266 µM).

**Q.** What does the source list for `CC(=O)Nc1ccc(S(=O)(=O)/C(=C\c2ccc(C(F)(F)F)cc2)C(=O)c2nccs2)cc1`?
**A.** MIC (Pseudomonas aeruginosa [1]): 64 µg/mL (≈ 133 µM); MIC (Escherichia coli [2]): 256 µg/mL (≈ 533 µM); MIC (Staphylococcus aureus [3]): 128 µg/mL (≈ 266 µM); MIC (Enterococcus faecalis): 128 µg/mL (≈ 266 µM); MIC (Klebsiella pneumoniae): 256 µg/mL (≈ 533 µM); MIC (Staphylococcus aureus [4]): 128 µg/mL (≈ 266 µM); MIC (Staphylococcus aureus [5]): 256 µg/mL (≈ 533 µM); MIC (Acinetobacter baumannii): 128 µg/mL (≈ 266 µM); MIC (Staphylococcus aureus [6]): 256 µg/mL (≈ 533 µM); MIC (Escherichia coli [7]): 256 µg/mL (≈ 533 µM); MIC (Pseudomonas aeruginosa [8]): 64 µg/mL (≈ 133 µM)

**Q.** How did the MIC (Pseudomonas aeruginosa [1]) turn out when `CC(=O)Nc1ccc(S(=O)(=O)/C(=C\c2ccc(F)cc2)C(=O)c2nccs2)cc1` was run?
**A.** The MIC was 64 µg/mL (≈ 149 µM).

**Q.** And the MIC (Escherichia coli [2])?
**A.** Its MIC is 64 µg/mL (≈ 149 µM).

**Q.** What about the MIC (Staphylococcus aureus [3]) of the same compound?
**A.** The MIC was 128 µg/mL (≈ 297 µM).

**Q.** And the MIC (Enterococcus faecalis)?
**A.** Its MIC is 128 µg/mL (≈ 297 µM).

**Q.** What about the MIC (Klebsiella pneumoniae) of the same compound?
**A.** The MIC was 128 µg/mL (≈ 297 µM).

**Q.** And the MIC (Staphylococcus aureus [4])?
**A.** The MIC was 256 µg/mL (≈ 595 µM).

**Q.** And the MIC (Staphylococcus aureus [5])?
**A.** Its MIC is 128 µg/mL (≈ 297 µM).

**Q.** What about the MIC (Acinetobacter baumannii) of the same compound?
**A.** Its MIC is 64 µg/mL (≈ 149 µM).

**Q.** What about the MIC (Staphylococcus aureus [6]) of the same compound?
**A.** The MIC was 128 µg/mL (≈ 297 µM).

**Q.** And the MIC (Escherichia coli [7])?
**A.** The MIC was 128 µg/mL (≈ 297 µM).

**Q.** What about the MIC (Pseudomonas aeruginosa [8]) of the same compound?
**A.** The MIC was 256 µg/mL (≈ 595 µM).

**Q.** For `CC(=O)Nc1ccc(S(=O)(=O)C/C(=N/Nc2ccc(Cl)cc2)c2nccs2)cc1`, which MIC (Pseudomonas aeruginosa [1]) is on record?
**A.** The MIC was 128 µg/mL (≈ 285 µM).

**Q.** And the MIC (Escherichia coli [2])?
**A.** The MIC was 128 µg/mL (≈ 285 µM).

**Q.** And the MIC (Staphylococcus aureus [3])?
**A.** The MIC was 128 µg/mL (≈ 285 µM).

**Q.** And the MIC (Enterococcus faecalis)?
**A.** The MIC was 64 µg/mL (≈ 143 µM).

**Q.** And the MIC (Klebsiella pneumoniae)?
**A.** The MIC was 256 µg/mL (≈ 570 µM).

**Q.** And the MIC (Staphylococcus aureus [4])?
**A.** The MIC was 256 µg/mL (≈ 570 µM).

**Q.** What about the MIC (Staphylococcus aureus [5]) of the same compound?
**A.** The MIC was 256 µg/mL (≈ 570 µM).

**Q.** And the MIC (Acinetobacter baumannii)?
**A.** The MIC was 256 µg/mL (≈ 570 µM).

**Q.** And the MIC (Staphylococcus aureus [6])?
**A.** Its MIC is 128 µg/mL (≈ 285 µM).

**Q.** And the MIC (Escherichia coli [7])?
**A.** The MIC was 128 µg/mL (≈ 285 µM).

**Q.** What about the MIC (Pseudomonas aeruginosa [8]) of the same compound?
**A.** Its MIC is 256 µg/mL (≈ 570 µM).

**Q.** Which MIC (Pseudomonas aeruginosa [1]) does the source give for `CC(=O)Nc1ccc(S(=O)(=O)C/C(=N/NC(=O)c2ccccc2O)c2nccs2)cc1` here?
**A.** Its MIC is 16 µg/mL (≈ 34.9 µM).

**Q.** And the MIC (Escherichia coli [2])?
**A.** Its MIC is 64 µg/mL (≈ 140 µM).

**Q.** What about the MIC (Staphylococcus aureus [3]) of the same compound?
**A.** The MIC was 256 µg/mL (≈ 558 µM).

**Q.** What about the MIC (Enterococcus faecalis) of the same compound?
**A.** The MIC was 128 µg/mL (≈ 279 µM).

**Q.** What about the MIC (Klebsiella pneumoniae) of the same compound?
**A.** Its MIC is 128 µg/mL (≈ 279 µM).

**Q.** And the MIC (Staphylococcus aureus [4])?
**A.** Its MIC is 64 µg/mL (≈ 140 µM).

**Q.** What about the MIC (Staphylococcus aureus [5]) of the same compound?
**A.** The MIC was 64 µg/mL (≈ 140 µM).

**Q.** What about the MIC (Acinetobacter baumannii) of the same compound?
**A.** Its MIC is 128 µg/mL (≈ 279 µM).

**Q.** And the MIC (Staphylococcus aureus [6])?
**A.** Its MIC is 128 µg/mL (≈ 279 µM).

**Q.** What about the MIC (Escherichia coli [7]) of the same compound?
**A.** Its MIC is 128 µg/mL (≈ 279 µM).

**Q.** What about the MIC (Pseudomonas aeruginosa [8]) of the same compound?
**A.** Its MIC is 256 µg/mL (≈ 558 µM).

**Q.** For `CC(=O)Nc1ccc(S(=O)(=O)/C(=C\c2ccc(C#N)cc2)C(=O)c2nccs2)cc1`, which MIC (Pseudomonas aeruginosa [1]) is on record?
**A.** Its MIC is 64 µg/mL (≈ 146 µM).

**Q.** And the MIC (Escherichia coli [2])?
**A.** Its MIC is 16 µg/mL (≈ 36.6 µM).

**Q.** And the MIC (Staphylococcus aureus [3])?
**A.** Its MIC is 8 µg/mL (≈ 18.3 µM).

**Q.** What about the MIC (Enterococcus faecalis) of the same compound?
**A.** Its MIC is 8 µg/mL (≈ 18.3 µM).

**Q.** What about the MIC (Klebsiella pneumoniae) of the same compound?
**A.** Its MIC is 128 µg/mL (≈ 293 µM).

**Q.** What about the MIC (Staphylococcus aureus [4]) of the same compound?
**A.** The MIC was 32 µg/mL (≈ 73.1 µM).

**Q.** And the MIC (Staphylococcus aureus [5])?
**A.** The MIC was 8 µg/mL (≈ 18.3 µM).

**Q.** What about the MIC (Acinetobacter baumannii) of the same compound?
**A.** Its MIC is 128 µg/mL (≈ 293 µM).

**Q.** What about the MIC (Staphylococcus aureus [6]) of the same compound?
**A.** Its MIC is 8 µg/mL (≈ 18.3 µM).

**Q.** What about the MIC (Escherichia coli [7]) of the same compound?
**A.** Its MIC is 32 µg/mL (≈ 73.1 µM).

**Q.** What about the MIC (Pseudomonas aeruginosa [8]) of the same compound?
**A.** The MIC was 128 µg/mL (≈ 293 µM).

**Q.** With `CC(=O)Nc1ccc(S(=O)(=O)C/C(=N/NC(=O)c2cccnc2)c2nccs2)cc1` as the compound, how does the MIC (Pseudomonas aeruginosa [1]) read?
**A.** The MIC was 16 µg/mL (≈ 36.1 µM).

**Q.** And the MIC (Escherichia coli [2])?
**A.** Its MIC is 128 µg/mL (≈ 289 µM).

**Q.** What about the MIC (Staphylococcus aureus [3]) of the same compound?
**A.** The MIC was 128 µg/mL (≈ 289 µM).

**Q.** And the MIC (Enterococcus faecalis)?
**A.** Its MIC is 128 µg/mL (≈ 289 µM).

**Q.** What about the MIC (Klebsiella pneumoniae) of the same compound?
**A.** The MIC was 16 µg/mL (≈ 36.1 µM).

**Q.** And the MIC (Staphylococcus aureus [4])?
**A.** Its MIC is 2 µg/mL (≈ 4.51 µM).

**Q.** And the MIC (Staphylococcus aureus [5])?
**A.** The MIC was 2 µg/mL (≈ 4.51 µM).

**Q.** What about the MIC (Acinetobacter baumannii) of the same compound?
**A.** The MIC was 32 µg/mL (≈ 72.2 µM).

**Q.** What about the MIC (Staphylococcus aureus [6]) of the same compound?
**A.** Its MIC is 8 µg/mL (≈ 18 µM).

**Q.** What about the MIC (Escherichia coli [7]) of the same compound?
**A.** The MIC was 32 µg/mL (≈ 72.2 µM).

**Q.** What about the MIC (Pseudomonas aeruginosa [8]) of the same compound?
**A.** The MIC was 128 µg/mL (≈ 289 µM).

From ChEMBL document CHEMBL5325403, “Benzenesulfonyl thiazoloimines as unique multitargeting antibacterial agents towards Enterococcus faecalis” (Eur J Med Chem, 2023)
